Values quoted from earlier work as cited in patent US9511011B2, “TRPV1 inhibitory peptides and composition for skin-aging protection or wrinkle improvement comprising the same” (SNU R&DB FOUNDATION, priority 2012, dated 2016).

Target: T1, TRPV1 (Homo sapiens, UniProt Q8NER1)
T1 construct: Capsaicin stimulus increases intracellular Ca^2+ level in keratinocytes, which is suppressed by capsazepine; host or cells: keratinocytes (endogenous TRPV1)
Conditions: keratinocytes

T1 sequence (Q8NER1 whole entry): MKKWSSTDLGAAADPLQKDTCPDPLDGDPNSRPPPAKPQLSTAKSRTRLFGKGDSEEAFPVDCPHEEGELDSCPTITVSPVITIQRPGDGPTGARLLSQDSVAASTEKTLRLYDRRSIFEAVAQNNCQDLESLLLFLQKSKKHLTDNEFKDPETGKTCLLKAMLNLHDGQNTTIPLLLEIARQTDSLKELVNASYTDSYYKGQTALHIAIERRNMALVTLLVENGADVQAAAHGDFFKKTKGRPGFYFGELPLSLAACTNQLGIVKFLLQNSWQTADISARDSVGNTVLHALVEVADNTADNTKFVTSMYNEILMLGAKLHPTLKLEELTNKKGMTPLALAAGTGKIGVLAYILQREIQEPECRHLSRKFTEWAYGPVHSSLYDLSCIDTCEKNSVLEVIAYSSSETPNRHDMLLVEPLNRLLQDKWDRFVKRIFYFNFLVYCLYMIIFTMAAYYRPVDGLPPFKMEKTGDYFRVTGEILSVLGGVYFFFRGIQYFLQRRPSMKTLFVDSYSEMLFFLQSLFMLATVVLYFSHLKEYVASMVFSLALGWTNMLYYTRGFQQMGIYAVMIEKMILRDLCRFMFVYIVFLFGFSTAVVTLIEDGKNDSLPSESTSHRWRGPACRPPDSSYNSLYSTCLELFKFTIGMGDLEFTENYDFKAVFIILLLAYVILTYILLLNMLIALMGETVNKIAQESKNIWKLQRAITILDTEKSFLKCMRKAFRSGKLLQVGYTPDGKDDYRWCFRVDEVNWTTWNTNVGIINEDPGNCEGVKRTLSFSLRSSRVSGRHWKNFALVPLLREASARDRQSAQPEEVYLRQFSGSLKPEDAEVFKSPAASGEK

intracellular Ca2+ level increased by capsaicin stimulus: suppressed
SMILES: Oc1cc2c(cc1O)CN(C(=S)NCCc1ccc(Cl)cc1)CCC2 [capsazepine]
